Reference: patent publication US6511970B1, “Prevention of ovarian cancer by administration of products that induce transforming growth factor-beta and/or apoptosis in the ovarian epithelium” (New Life Pharmaceuticals Inc., priority 1996, dated 2003)

Columns and labels:
[1] = system: ovarian and oviductal tumors; test: Two-year chemoprevention trial in the chicken; format: in vivo; details: two-year mark; feed restriction (anovulatory); preliminary results
Description: A two-year prevention trial was performed in the chicken, designed to test the hypothesis that progestins confer prevention against ovarian cancer. Two thousand two year-old birds were randomized into several groups, including untreated controls, and groups receiving the progestins provera or levonorgestrel. The trial has just completed, and tumors accrued during the trial are currently being studied.

TGF beta-3 [2] = test: TGF beta-3 immunohistochemical staining in monkey ovarian endothelial cells; format: in vivo, cynomolgus monkeys; details: Triphasil-pattern doses in diet
Source text: (§1) Young female adult cynomolgus monkeys were fed a diet for three years that contained either no hormones, the oral combination contraceptive “[…],” the estrogenic component of “[…] estradiol) alone, or the progestin component of “[…]” (levonorgestrel) alone, each administered in the same pattern that occurs in a “[…]” regimen. Doses were scaled on the basis of caloric intake, which is the accepted way to achieve human-equivalent doses. […] This cyclic regimen was repeated every 28 days continuously for 2 years. In a similar experiment, the effect of hormone treatment on expression of TGF-β3 was examined in the ovaries of primates from the trial described above. This study uses monkeys that were randomized in the study above of apoptosis in the ovarian epithelium. […] Ovarian sections from each of the monkeys were stained immunohistochemically for expression of TGF beta-3, using an anti-TGF-beta-3 monoclonal antibody. […] Two blinded observers then quantitated degree of expression of TGF-β3 by grading the intensity of staining on a scale of 1-4+ in several ovarian compartments: 1) epithelium, 2) oocytes, 3) endothelial cells, 4) granulosa cells. The staining was characterized as negative (0-2+) versus positive (3-4+). The following tables show the distribution of negative (0-2) and positive (3-4) staining among the randomized treatment groups for each separate ovarian compartment (i.e.: epithelial, oocyte cytoplasm, granulosa, and endothelial).

[3] = system: M-100 immortalized human ovarian epithelial cells; test: Cell death ELISA (DNA-histone complexes) in M-100 cells; format: cell-based; details: 20 ng/ml, 96 hours, P<0.05
Description: Specifically, a spontaneously immortalized cell line, M-100, derived from a normal human ovarian epithelial cell culture was plated in 24 well plates at a concentration of 100,000 cells per well. […] All experiments were performed in triplicate.

TGF beta-3 [4] = test: TGF beta-3 immunohistochemical staining in monkey ovarian oocytes; format: in vivo, cynomolgus monkeys; details: Triphasil-pattern doses in diet
Source text: as §1

TGF beta-3 [5] = test: TGF beta-3 immunohistochemical staining in monkey ovarian epithelium; format: in vivo, cynomolgus monkeys; details: Triphasil-pattern doses in diet
Source text: as §1

TGF beta-3 [6] = test: TGF beta-3 immunohistochemical staining in monkey ovarian granulosa cells; format: in vivo, cynomolgus monkeys; details: Triphasil-pattern doses in diet
Source text: as §1

ovarian epithelial cells = test: Apoptosis in monkey ovarian surface epithelium in vivo (Apoptag-plus staining); parameters: species or system cynomolgus monkeys; details: in diet, Triphasil-pattern human-equivalent doses, 28-day cycles for 2 years
Source text: Young female adult cynomolgus monkeys were fed a diet for […] that contained either no hormones, the oral combination contraceptive “[…],” the estrogenic component of “[…] estradiol) alone, or the progestin component of “[…]” (levonorgestrel) alone, each administered in the same pattern that occurs in a “[…]” regimen. Doses were scaled on the basis of caloric intake, which is the accepted way to achieve human-equivalent doses. […] This cyclic regimen was repeated every 28 days continuously for 2 years. At the completion of the two years of the study, the animals were sacrificed, and their ovaries were removed and both formalin-fixed and paraffin embedded as well as flash frozen and stored at minus 70 degrees Celsius. Five-micron ovarian sections were mounted on coated slides, and stained with the Apoptag-plus kit (Oncor, Gaithersburg, Md.), which specifically labels the 3' end of free DNA fragments in cells undergoing DNA fragmentation, a characteristic of apoptosis. After staining, cells undergoing apoptosis were easily identified by their dark brown nuclear discoloration. The ovarian surface epithelium was examined histologically to assess ovarian epithelial morphology and to determine the percentage of ovarian cells undergoing apoptosis. To calculate the percentage of ovarian epithelial cells undergoing apoptosis, both the total number of ovarian epithelial cells and the number undergoing apoptosis were counted on each five-micron ovarian section. At each step, the investigators were completely blinded with regard to which treatment group was associated with each ovary.

[7] = serum; cited from earlier work
[8] = system: human ovarian epithelial cells; test: Cell death ELISA in normal human ovarian epithelial cell culture; format: cell-based; details: 100 nM, 96 hours, p=0.01
Description: Example 10 addresses the effect of administration of Vitamin D on human ovarian epithelial cells. According to this example, a cell culture derived from normal ovarian epithelial cells was plated in 24 well plates at a concentration of 100,000 cells per well. After 24 hours, the wells were treated with 1,25-dihydroxyvitamin D3 at a 100 nM concentration or control medium, and allowed to incubate for 96 hours. All experiments were carried out in triplicate. After 96 hours, cell lysates were extracted from each of the wells, and the cytoplasmic fraction was normalized for cell number and analyzed for DNA-histone complexes indicative of apoptosis using a cell death ELISA (Boehringer Mannheim). A significant (300%) increase in apoptosis (p=0.01) was measured in the human ovarian epithelial cells treated with Vitamin D as compared with the controls.

TGF β3 = test: Anti-TGF β3 immunohistochemical staining of M-100 cells; format: cell-based, human; details: 100 nM, 72 hours
Description: An immortalized cell line, M-100, derived from a normal human ovarian epithelial cell culture established in our laboratory was plated in 100 mm plates at a concentration of 1 million cells per plate, in the presence of either 1,25 (OH)2 D3 or the Vitamin D analogue […] at doses of each (100 nM) or control medium, and allowed to incubate for 72 hours. After 72 hours, cells were scraped from each of the plates, fixed on glass slides, and stained immunohistochemically with anti-TGF β3 antibody.

Row | Compound | fewer ovarian and oviductal tumors than controls [1] [%] | Endothelial staining Negative (0-2+), number of monkeys (TGF beta-3 [2]) | Endothelial staining Positive (3-4+), number of monkeys (TGF beta-3 [2]) | Endothelial staining Positive (3-4+), percent of monkeys (TGF beta-3 [2]) | Oocyte cytoplasm staining Negative (0-2+), number of monkeys (TGF beta-3 [4]) | Oocyte cytoplasm staining Positive (3-4+), number of monkeys (TGF beta-3 [4]) | Oocyte cytoplasm staining Positive (3-4+), percent of monkeys (TGF beta-3 [4]) | Epithelial staining Negative (0-2+), number of monkeys (TGF beta-3 [5]) | Epithelial staining Positive (3-4+), number of monkeys (TGF beta-3 [5]) | Epithelial staining Positive (3-4+), percent of monkeys (TGF beta-3 [5]) | Granulosa Cell staining Negative (0-2+), number of monkeys (TGF beta-3 [6]) | Granulosa Cell staining Positive (3-4+), number of monkeys (TGF beta-3 [6]) | Granulosa Cell staining Positive (3-4+), percent of monkeys (TGF beta-3 [6]) | Median Percent of Apoptotic Cell Counts (ovarian epithelial cells) [%] | Range Percent of Apoptotic Cell Counts (ovarian epithelial cells) | TGF β3 expression as compared to controls (in words) (TGF β3) | also measured
1 | CC(=O)O[C@]1(C(C)=O)CC[C@H]2[C@@H]3C[C@H](C)C4=CC(=O)CC[C@]4(C)[C@H]3CC[C@@]21C [provera, medroxyprogesterone acetate] | 35 |  |  |  |  |  |  |  |  |  |  |  |  |  |  |  | 
2 | C#C[C@]1(O)CC[C@H]2[C@@H]3CCC4=CC(=O)CC[C@@H]4[C@H]3CC[C@@]21CC [Levonorgestrel, levonorgestrel] | 35 | 1 | 16 | (94%) | 3 | 14 | (82%) | 0 | 17 | (100%) | 16 | 1 | (6%) | 24.9 | 3.5-61.8% |  | increase in apoptosis as compared to controls [3]: 100%
3 | C#C[C@]1(O)CC[C@H]2[C@@H]3CCc4cc(O)ccc4[C@H]3CC[C@@]21C [Ethinyl Estradiol (EE), ethinyl estradiol] |  | 21 | 5 | (23%) | 4 | 17 | (81%) | 19 | 2 | (10%) | 13 | 8 | (38%) | 1.8 | 0.1-28.6% |  | Median Percent of Apoptotic Cell Counts (ovarian epithelial cells; listed as Ethinyl-estradiol-only): 1.8%
4 | C=C1CC[C@H](O)C/C1=C/C=C1\CCC[C@]2(C)[C@@H]([C@H](C)CCCC(C)(C)O)CC[C@@H]12 [25-hydroxyvitamin D3] |  |  |  |  |  |  |  |  |  |  |  |  |  |  |  |  | biological half-life (in words) [7]: several weeks
5 | C=C1/C(=C\C=C2/CCC[C@]3(C)[C@@H]([C@H](C)CCCC(C)(C)O)CC[C@@H]23)C[C@@H](O)C[C@@H]1O [1,25-dihydroxyvitamin D3] |  |  |  |  |  |  |  |  |  |  |  |  |  |  |  | significant increase in TGF β3 expression | increase in apoptosis as compared with the controls [8]: 300%; half-life [7]: 6 to 8 h
6 | C=C1/C(=C\C=C2/CCC[C@]3(C)[C@@H]([C@H](C)/C=C/C=C/C(O)(CC)CC)CC[C@@H]23)C[C@@H](O)C[C@@H]1O [E1089] |  |  |  |  |  |  |  |  |  |  |  |  |  |  |  | significant increase in TGF β3 expression | 
